According to US20100286076A1, “ECTOPARASITICIDAL METHODS AND FORMULATIONS” (priority 2009, published 2010):

Experiments:
Format in all cases: in vivo
[1] = tested on: adult stage kennel ticks, Rhipicephalus sanguineus; assay: Oral administration per os to dogs, experimental kennel tick infestation; conditions: at the doses tested (30, 50 or 100 mg/kg)
Protocol: (§1) Oral administration per os to dogs. Given the above data, investigation into oral efficacy in dogs was begun. The investigation was conducted to evaluate 1) efficacy for a point dose of 30 mg/kg, against experimental, concurrent infestations with the adult cat flea, Ctenocephalides felis; adult stage American dog ticks, Dermacentor variabilis; and adult stage kennel ticks, Rhipicephalus sanguineus; 2) plasma concentrations of the 30 mg/kg treated dogs; and 3) efficacy for point dosages of either 50 mg/kg or 100 mg/kg, against experimental infestations with adult stage kennel ticks, R. sanguineus.
(§2) Sixteen dogs were selected for two groups of eight dogs (4 male: 4 female) per group. One treatment group received spinetoram, while the other group was left untreated. The dogs were housed individually in concrete-floored chain-link kennels both inside and outside. During the study period the dogs were fed a dry dog chow, except for the day of treatment (day 0) when they received wet canned food. The dogs had ad libitum access to water. […]
(§3) Each dog was experimentally infested with about 100 adult fleas, and 50 ticks of each species on test days—1,5,12,19, 28, 35, and 42, with additional flea infestations conducted on days 49 and 56. […] Knockdown activity (Day 1) was determined using 24 hr post-dosing comb counts. […]

Ctenocephalides felis = assay: Pulse vs. single dose administration per os to dogs, flea infestation comb counts
Protocol: Pulse vs. Single dose administration per os to dogs/Ctenocephalides felis Another dog study was undertaken to evaluate the effect on flea infestation of 1) oral administration of a single point dose of 60 mg/kg; 2) oral administration of a pulsed dosing scheme of 20 mg/kg TID every 2 hours for one day; 3) oral administration of a pulsed dosing scheme of 20 mg/kg TID every 4 hours for one day; and 4) post-treatment plasma concentration of spinetoram.
Four treatment groups of 8 dogs each (4 male: 4 female) were dosed spinetoram as follows:
Treatment Group 1: 60 mg/kg, single dose
Treatment Group 2: 60 mg/kg, (20 mg/kg every 2 hours, three times)
Treatment Group 3: 60 mg/kg, (20 mg/kg every 4 hours, three times)
Treatment Group 4: 0 mg/kg, (negative control)
The dogs were housed individually in concrete-floored chain-link kennels both inside and outside. During the study period the dogs were fed a dry dog chow, except for two days prior to and the day of treatment (day 0) when they received wet canned food. The dogs had ad libitum access to water.
The treated dogs received one or more gelatin capsules containing technical active spinetoram powder by mouth, with treatment group 4 receiving placebo. Each dog was experimentally infested with about 100 fleas on test days—1,5,12,19, 28, 35, 42, 49, and 56. Knockdown assessments were conducted 24 hours after dosing, with residual efficacy evaluated subsequently at 48 hours after each subsequent infestation. The day 1 comb count served to determine the initial/knockdown efficacy, approximately 24 hours after the 60 mg/kg dose, or the first of the pulse dose. Blood samples were drawn to determine concentration of spinetoram in plasma.

[2] = tested on: adult stage American dog ticks, Dermacentor variabilis; assay: Oral administration per os to dogs, experimental American dog tick infestation; conditions: at the doses tested (30 mg/kg)
Protocol: as §1, §2, §3

Substance: Spinetoram
- activity against ticks [1]: did not demonstrate statistically significant activity
- geometric mean live adult flea count (Ctenocephalides felis; oral 20 mg/kg TID@2 h, Day 1): 0.0
- geometric mean percent reduction in live adult flea counts compared to the untreated control group (Ctenocephalides felis; oral 20 mg/kg TID@2 h, Day 1): (100) percent
- geometric mean live adult flea count (Ctenocephalides felis; oral 20 mg/kg TID@2 h, Day 7): 0.0
- geometric mean percent reduction in live adult flea counts compared to the untreated control group (Ctenocephalides felis; oral 20 mg/kg TID@2 h, Day 7): (100) percent
- geometric mean live adult flea count (Ctenocephalides felis; oral 20 mg/kg TID@2 h, Day 14): 0.0
- geometric mean percent reduction in live adult flea counts compared to the untreated control group (Ctenocephalides felis; oral 20 mg/kg TID@2 h, Day 14): (100) percent
- geometric mean live adult flea count (Ctenocephalides felis; oral 20 mg/kg TID@2 h, Day 21): 0.0
- geometric mean percent reduction in live adult flea counts compared to the untreated control group (Ctenocephalides felis; oral 20 mg/kg TID@2 h, Day 21): (100) percent
- geometric mean live adult flea count (Ctenocephalides felis; oral 20 mg/kg TID@2 h, Day 30): 0.0
- geometric mean percent reduction in live adult flea counts compared to the untreated control group (Ctenocephalides felis; oral 20 mg/kg TID@2 h, Day 30): (100) percent
- geometric mean live adult flea count (Ctenocephalides felis; oral 20 mg/kg TID@2 h, Day 37): 0.0
- geometric mean percent reduction in live adult flea counts compared to the untreated control group (Ctenocephalides felis; oral 20 mg/kg TID@2 h, Day 37): (100) percent
- geometric mean live adult flea count (Ctenocephalides felis; oral 20 mg/kg TID@2 h, Day 44): 0.0
- geometric mean percent reduction in live adult flea counts compared to the untreated control group (Ctenocephalides felis; oral 20 mg/kg TID@2 h, Day 44): (100) percent
- geometric mean live adult flea count (Ctenocephalides felis; oral 20 mg/kg TID@2 h, Day 51): 0.0
- geometric mean percent reduction in live adult flea counts compared to the untreated control group (Ctenocephalides felis; oral 20 mg/kg TID@2 h, Day 51): (100) percent
- geometric mean live adult flea count (Ctenocephalides felis; oral 20 mg/kg TID@2 h, Day 58): 0.0
- geometric mean percent reduction in live adult flea counts compared to the untreated control group (Ctenocephalides felis; oral 20 mg/kg TID@2 h, Day 58): (100) percent
- geometric mean live adult flea count (Ctenocephalides felis; oral 20 mg/kg TID@2 h, Day 72): 0.0
- geometric mean percent reduction in live adult flea counts compared to the untreated control group (Ctenocephalides felis; oral 20 mg/kg TID@2 h, Day 72): (100) percent
- geometric mean live adult flea count (Ctenocephalides felis; oral 20 mg/kg TID@2 h, Day 86): 6.4
- geometric mean percent reduction in live adult flea counts compared to the untreated control group (Ctenocephalides felis; oral 20 mg/kg TID@2 h, Day 86): (91.7) percent
- geometric mean live adult flea count (Ctenocephalides felis; oral 20 mg/kg TID@2 h, Day 93): 2.5
- geometric mean percent reduction in live adult flea counts compared to the untreated control group (Ctenocephalides felis; oral 20 mg/kg TID@2 h, Day 93): (96.7) percent
- geometric mean live adult flea count (Ctenocephalides felis; oral 20 mg/kg TID@2 h, Day 100): 10.0
- geometric mean percent reduction in live adult flea counts compared to the untreated control group (Ctenocephalides felis; oral 20 mg/kg TID@2 h, Day 100): (88.0) percent
- geometric mean live adult flea count (Ctenocephalides felis; oral 20 mg/kg TID@2 h, Day 107): 4.8
- geometric mean percent reduction in live adult flea counts compared to the untreated control group (Ctenocephalides felis; oral 20 mg/kg TID@2 h, Day 107): (94.1) percent
- geometric mean live adult flea count (Ctenocephalides felis; oral 20 mg/kg TID@4 h, Day 1): 0.0
- geometric mean percent reduction in live adult flea counts compared to the untreated control group (Ctenocephalides felis; oral 20 mg/kg TID@4 h, Day 1): (100) percent
- geometric mean live adult flea count (Ctenocephalides felis; oral 20 mg/kg TID@4 h, Day 7): 0.0
- geometric mean percent reduction in live adult flea counts compared to the untreated control group (Ctenocephalides felis; oral 20 mg/kg TID@4 h, Day 7): (100) percent
- geometric mean live adult flea count (Ctenocephalides felis; oral 20 mg/kg TID@4 h, Day 14): 0.0
- geometric mean percent reduction in live adult flea counts compared to the untreated control group (Ctenocephalides felis; oral 20 mg/kg TID@4 h, Day 14): (100) percent
- geometric mean live adult flea count (Ctenocephalides felis; oral 20 mg/kg TID@4 h, Day 21): 0.0
- geometric mean percent reduction in live adult flea counts compared to the untreated control group (Ctenocephalides felis; oral 20 mg/kg TID@4 h, Day 21): (100) percent
- geometric mean live adult flea count (Ctenocephalides felis; oral 20 mg/kg TID@4 h, Day 30): 0.2
- geometric mean percent reduction in live adult flea counts compared to the untreated control group (Ctenocephalides felis; oral 20 mg/kg TID@4 h, Day 30): (99.8) percent
- geometric mean live adult flea count (Ctenocephalides felis; oral 20 mg/kg TID@4 h, Day 37): 0.0
- geometric mean percent reduction in live adult flea counts compared to the untreated control group (Ctenocephalides felis; oral 20 mg/kg TID@4 h, Day 37): (100) percent
- geometric mean live adult flea count (Ctenocephalides felis; oral 20 mg/kg TID@4 h, Day 44): 0.0
- geometric mean percent reduction in live adult flea counts compared to the untreated control group (Ctenocephalides felis; oral 20 mg/kg TID@4 h, Day 44): (100) percent
- geometric mean live adult flea count (Ctenocephalides felis; oral 20 mg/kg TID@4 h, Day 51): 0.2
- geometric mean percent reduction in live adult flea counts compared to the untreated control group (Ctenocephalides felis; oral 20 mg/kg TID@4 h, Day 51): (99.7) percent
- geometric mean live adult flea count (Ctenocephalides felis; oral 20 mg/kg TID@4 h, Day 58): 0.0
- geometric mean percent reduction in live adult flea counts compared to the untreated control group (Ctenocephalides felis; oral 20 mg/kg TID@4 h, Day 58): (100) percent
- geometric mean live adult flea count (Ctenocephalides felis; oral 20 mg/kg TID@4 h, Day 72): 0.2
- geometric mean percent reduction in live adult flea counts compared to the untreated control group (Ctenocephalides felis; oral 20 mg/kg TID@4 h, Day 72): (99.8) percent
- geometric mean live adult flea count (Ctenocephalides felis; oral 20 mg/kg TID@4 h, Day 86): 4.7
- geometric mean percent reduction in live adult flea counts compared to the untreated control group (Ctenocephalides felis; oral 20 mg/kg TID@4 h, Day 86): (93.8) percent
- geometric mean live adult flea count (Ctenocephalides felis; oral 20 mg/kg TID@4 h, Day 93): 4.8
- geometric mean percent reduction in live adult flea counts compared to the untreated control group (Ctenocephalides felis; oral 20 mg/kg TID@4 h, Day 93): (93.7) percent
- geometric mean live adult flea count (Ctenocephalides felis; oral 20 mg/kg TID@4 h, Day 100): 11.4
- geometric mean percent reduction in live adult flea counts compared to the untreated control group (Ctenocephalides felis; oral 20 mg/kg TID@4 h, Day 100): (86.3) percent
- geometric mean live adult flea count (Ctenocephalides felis; oral 20 mg/kg TID@4 h, Day 107): 8.5
- geometric mean percent reduction in live adult flea counts compared to the untreated control group (Ctenocephalides felis; oral 20 mg/kg TID@4 h, Day 107): (89.6) percent
- geometric mean live adult flea count (Ctenocephalides felis; oral 60 mg/kg SID, Day 1): 0.0
- geometric mean percent reduction in live adult flea counts compared to the untreated control group (Ctenocephalides felis; oral 60 mg/kg SID, Day 1): (100) percent
- geometric mean live adult flea count (Ctenocephalides felis; oral 60 mg/kg SID, Day 7): 0.0
- geometric mean percent reduction in live adult flea counts compared to the untreated control group (Ctenocephalides felis; oral 60 mg/kg SID, Day 7): (100) percent
- geometric mean live adult flea count (Ctenocephalides felis; oral 60 mg/kg SID, Day 14): 0.0
- geometric mean percent reduction in live adult flea counts compared to the untreated control group (Ctenocephalides felis; oral 60 mg/kg SID, Day 14): 100) percent
- geometric mean live adult flea count (Ctenocephalides felis; oral 60 mg/kg SID, Day 21): 0.0
- geometric mean percent reduction in live adult flea counts compared to the untreated control group (Ctenocephalides felis; oral 60 mg/kg SID, Day 21): (100) percent
- geometric mean live adult flea count (Ctenocephalides felis; oral 60 mg/kg SID, Day 30): 0.0
- geometric mean percent reduction in live adult flea counts compared to the untreated control group (Ctenocephalides felis; oral 60 mg/kg SID, Day 30): (100) percent
- geometric mean live adult flea count (Ctenocephalides felis; oral 60 mg/kg SID, Day 37): 0.0
- geometric mean percent reduction in live adult flea counts compared to the untreated control group (Ctenocephalides felis; oral 60 mg/kg SID, Day 37): (100) percent
- geometric mean live adult flea count (Ctenocephalides felis; oral 60 mg/kg SID, Day 44): 0.0
- geometric mean percent reduction in live adult flea counts compared to the untreated control group (Ctenocephalides felis; oral 60 mg/kg SID, Day 44): (100) percent
- geometric mean live adult flea count (Ctenocephalides felis; oral 60 mg/kg SID, Day 51): 0.0
- geometric mean percent reduction in live adult flea counts compared to the untreated control group (Ctenocephalides felis; oral 60 mg/kg SID, Day 51): (100) percent
- geometric mean live adult flea count (Ctenocephalides felis; oral 60 mg/kg SID, Day 58): 0.2
- geometric mean percent reduction in live adult flea counts compared to the untreated control group (Ctenocephalides felis; oral 60 mg/kg SID, Day 58): (99.8) percent
- geometric mean live adult flea count (Ctenocephalides felis; oral 60 mg/kg SID, Day 72): 0.0
- geometric mean percent reduction in live adult flea counts compared to the untreated control group (Ctenocephalides felis; oral 60 mg/kg SID, Day 72): (100) percent
- geometric mean live adult flea count (Ctenocephalides felis; oral 60 mg/kg SID, Day 86): 1.8
- geometric mean percent reduction in live adult flea counts compared to the untreated control group (Ctenocephalides felis; oral 60 mg/kg SID, Day 86): (97.7) percent
- geometric mean live adult flea count (Ctenocephalides felis; oral 60 mg/kg SID, Day 93): 1.9
- geometric mean percent reduction in live adult flea counts compared to the untreated control group (Ctenocephalides felis; oral 60 mg/kg SID, Day 93): (97.5) percent
- geometric mean live adult flea count (Ctenocephalides felis; oral 60 mg/kg SID, Day 100): 5.2
- geometric mean percent reduction in live adult flea counts compared to the untreated control group (Ctenocephalides felis; oral 60 mg/kg SID, Day 100): (93.7) percent
- geometric mean live adult flea count (Ctenocephalides felis; oral 60 mg/kg SID, Day 107): 3.2
- geometric mean percent reduction in live adult flea counts compared to the untreated control group (Ctenocephalides felis; oral 60 mg/kg SID, Day 107): (96.2) percent
- activity against ticks [2]: did not demonstrate statistically significant activity
